Results as given in patent US11850306B2, “Method for drying hydrogel comprising nanofibrillar cellulose and a dried hydrogel comprising nanofibrillar cellulose” (UPM-KYMMENE CORPORATION, priority 2016, dated 2023).
Where “and” joins values, the source holds several entries; their conditions need not be identical. Identical values can stand only once. Like-named read-outs stand apart in the source and are kept apart here.

Legend:
[1] = In vitro release studies: diffusion coefficients of model compounds from NFC hydrogels; type: physicochemical; conditions: for Diffusion coefficient in NFC-hydrogels: pH 7.4, 37° C.
Method: In vitro drug release studies were performed with modified intrinsic dissolution disc dies filled with 1.07 g of formulations with a constant flat surface area of 1.33 cm^2. Discs were placed in 150 ml amber glass vessels on top of a holder. The vessels were filled to a final volume of 70 ml with pH 7.4 phosphate buffered saline (1×DPBS) and kept at 37° C. under constant magnetic stirring (400 rpm) on top of a multi-position magnetic stirrer IKA RT10 (IKA-Werke GmbH & Co KG, Germany). […] All experiments were done in triplicate.
The flow rate was 0.5 ml/min and the injection volume 5 μl. […] During the gradient run the mobile phase consisted of a mixture of acetonitrile and 15 mM phosphate buffer pH 2 in 25:75 ratio at 0-3 min. After 3 min the mobile phase composition was changed to 75:25 ratio. […] For nadolol, the used column was HSS-T3 1.8 μm (2.1×50 mm) (Waters, USA) at 30° C. The flow rate was 0.5 ml/min and the injection volume 5 μl. […] During the gradient run the mobile phase consisted of a mixture of acetonitrile and 15 mM phosphate buffer pH 2 in 10:90 ratio at 0-3 min. After 3 min the mobile phase composition was changed to 50:50 ratio.
200 μl of samples were pipetted into wells of 96-well OptiPlate plates (PerkinElmer, Finland). Excitation wavelength 490 nm, emission wavelength 520 nm and 12 nm bandwidth were used.
For metronidazole, absorbance was measured in 1 cm cell at 320 nm with 12 nm bandwidth against blank.
Sample and reagent were mixed thoroughly with a multi-channel pipet and incubated for 20 minutes at room temperature before absorbance measurement.
Mathematical equations were used for the modelling of diffusion controlled drug release that take into consideration structure of the device, the ratio of initial drug concentration to drug solubility and the device geometry. The diffusion coefficients were calculated by Higuchi equation (1) for small molecules with a presumption that these systems could be described as monolithic dispersions (Equations 1 and 2 below). For large molecules (1 kDa) equations we used to solve Fick's second law of diffusion and diffusion coefficients (2) with a presumption that these systems could be described as monolithic solutions (FIG. 2).
In vitro drug release studies were performed with modified intrinsic dissolution disc dies filled with 1.07 g of formulations with a constant flat surface area of 1.33 cm2. Discs were placed in 150 ml amber glass vessels on top of a holder. The vessels were filled to a final volume of 70 ml with pH 7.4 phosphate buffered saline (1×DPBS) and kept at 37° C. under constant magnetic stirring (400 rpm) on top of a multi-position magnetic stirrer IKA RT10 (IKA-Werke GmbH & Co KG, Germany). […] All experiments were done in triplicate.

[2] = cited from earlier work
[3] = nitrogen; cited from earlier work
[4] = cited from earlier work; for Solubility in aqueous media (intrinsic solubility): 25° C.
[5] = 3% NFC/exp (PEG6000 and trehalose), before freeze drying
[6] = 6.5% NFC/exp (PEG6000 and trehalose), before freeze drying
[7] = FD 3% NFC/exp, freeze dried and redispersed
[8] = FD 6.5% NFC/exp, freeze dried and redispersed

Molecule | Diffusion coefficients for model compounds in different NFC hydrogels ([1]; 3% NFC, no excipients) | Diffusion coefficients for model compounds in different NFC hydrogels [1, 5] | Diffusion coefficients for model compounds in different NFC hydrogels ([1]; 6.5% NFC, no excipients) | Diffusion coefficients for model compounds in different NFC hydrogels [1, 6] | Diffusion coefficients for model compounds in different NFC hydrogels [1, 7] | Diffusion coefficients for model compounds in different NFC hydrogels [1, 8] | Diffusion coefficient in NFC-hydrogels ([1]; NFC hydrogel 11804-3 (3.2%)) | Diffusion coefficient in NFC-hydrogels ([1]; NFC hydrogel 11814-1 (5.7%)) | Diffusion coefficient in NFC-hydrogels ([1]; NFC hydrogel 11814-3 (5.7%)) | Diffusion coefficient in NFC-hydrogels ([1]; NFC hydrogel 11815-3 (6.8%)) | pKa/pI [2] | Onset degradation temp Td, N2 [3] [°C] | Solubility in aqueous media (intrinsic solubility) [4] | Solubility in aqueous media ([4]; pH 7) | Solubility in aqueous media ([4]; condition not given) [mg/mL] | Charge at pH 7.0 ([2]; pH 7.0) | Charge of compounds at pH 7.4 ([2]; pH 7.4)
CC(C)(C)NCC(O)COc1cccc2c1CC(O)C(O)C2 (stereo not drawn) [Nadolol] | 286.24 10^−8 cm^2/s | 292.92 10^−8 cm^2/s | 230.62 10^−8 cm^2/s | 245.04 10^−8 cm^2/s | 296.36 10^−8 cm^2/s | 267.21 10^−8 cm^2/s | 286.24 10^−8 cm^2/s | 273.21 10^−8 cm^2/s | 287.50 10^−8 cm^2/s | 230.62 10^−8 cm^2/s | 9.28 | 196.2 | 8.3 (25° C.), mg/ml | 8.3 (pH 7) mg/ml |  |  | 
CC(C(=O)O)c1cccc(C(=O)c2ccccc2)c1 (stereo not drawn) [Ketoprofen] | 152.62 10^−8 cm^2/s | 147.15 10^−8 cm^2/s | 141.86 10^−8 cm^2/s | 141.20 10^−8 cm^2/s | 129.97 10^−8 cm^2/s | 124.44 10^−8 cm^2/s | 152.62 10^−8 cm^2/s | 131.41 10^−8 cm^2/s | 148.23 10^−8 cm^2/s | 141.86 10^−8 cm^2/s |  |  |  |  |  |  | 
Lysozyme: Lysozyme from hen egg white, 14.7 kDa model compound | 3.53 10^−8 cm^2/s |  | 1.75 10^−8 cm^2/s |  |  |  | 3.53 10^−8 cm^2/s | 1.79 10^−8 cm^2/s | 2.57 10^−8 cm^2/s | 1.75 10^−8 cm^2/s |  |  |  |  | >10 |  | 
OC[C@H]1O[C@H](O[C@H]2O[C@H](CO)[C@@H](O)[C@H](O)[C@H]2O)[C@H](O)[C@@H](O)[C@@H]1O [Trehalose, D-(+)-trehalose dihydrate] |  |  |  |  |  |  |  |  |  |  |  | 230 |  |  |  |  | 
Cc1ncc([N+](=O)[O-])n1CCO [Metronidazole] | 716.99 10^−8 cm^2/s | 657.41 10^−8 cm^2/s | 617.51 10^−8 cm^2/s | 617.16 10^−8 cm^2/s | 699.10 10^−8 cm^2/s | 660.18 10^−8 cm^2/s | 716.99 10^−8 cm^2/s | 609.51 10^−8 cm^2/s | 551.09 10^−8 cm^2/s | 617.51 10^−8 cm^2/s |  | 160 | 10.5 (25° C.), mg/ml and 10.5 mg/ml | 10.5 (pH 7) mg/ml |  | ø | Metronidazole (ø)
Polyethylene glycol 6000 [PEG 6000] |  |  |  |  |  |  |  |  |  |  |  | 257 |  |  |  |  | 
